Results from the supplement of paper PMC10307832.

Key:
Test in all cases: relative viability (nuclei count vs DMSO), 5 days (fraction); higher = more cells survive
[1] = compound: CC1=CN2C(=O)C=C(N=C2C(=C1)C(C)NC3=CC=CC=C3)N4CCOCC4 [TGX 221] + CS(=O)(=O)N1CCN(Cc2cc3nc(-c4cccc5[nH]ncc45)nc(N4CCOCC4)c3s2)CC1 [Pictilisib] (partner 1 µM)
Procedure, shortened: (§1)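 Cells from lung cancer lines were seeded into 1536-well plates and, one day later, dosed by pin tool. Treatments were either a single drug or a fixed dose of an anchor drug with five library-drug doses (not always all listed) in √10 steps. After 5 days, nuclei were stained in a one-step fixation (final 0.05% Triton X-100, 1% formaldehyde, 1 ug/ml Hoechst) and counted on 4× images, and relative viability is the treated-to-vehicle nuclei ratio, as the median of duplicate plates.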

[2] = compound: CC1=CN2C(=O)C=C(N=C2C(=C1)C(C)NC3=CC=CC=C3)N4CCOCC4 [TGX 221] + CCNC(=O)c1noc(-c2cc(C(C)C)c(O)cc2O)c1-c1ccc(CN2CCOCC2)cc1 [Luminespib] (partner 0.01 µM)
Procedure, shortened: as §1

[3] = compound: C1=CC=C(C(=C1)C2=CC=C(C=C2)C3=CSC4=C3C(=C(C(=O)N4)C#N)O)O + CC1(C)CCC(c2ccc(Cl)cc2)=C(CN2CCN(c3ccc(C(=O)NS(=O)(=O)c4ccc(N[C@H](CCN5CCOCC5)CSc5ccccc5)c(S(=O)(=O)C(F)(F)F)c4)cc3)CC2)C1 [Navitoclax] (partner 0.5 µM)
Procedure, shortened: as §1

Cell Line | relative viability ([1]; first compound 0.08 µM) | relative viability ([1]; first compound 0.253 µM) | relative viability ([1]; first compound 0.8 µM) | relative viability ([1]; first compound 2.53 µM) | relative viability ([1]; first compound 8 µM) | relative viability ([2]; first compound 0.08 µM) | relative viability ([2]; first compound 0.253 µM) | relative viability ([2]; first compound 0.8 µM) | relative viability ([2]; first compound 2.53 µM) | relative viability ([2]; first compound 8 µM) | relative viability ([3]; first compound 0.08 µM) | relative viability ([3]; first compound 0.253 µM) | relative viability ([3]; first compound 0.8 µM) | relative viability ([3]; first compound 2.53 µM) | relative viability ([3]; first compound 8 µM)
NCI-H1437 | 0.439 | 0.359 | 0.473 | 0.462 | 0.399 | 1.09 | 1.11 | 1.16 | 1.1 | 0.929 | 1.06 | 1.16 | 1.18 | 1.13 | 0.881
EKVX | 0.337 | 0.458 | 0.448 | 0.39 | 0.404 | 0.832 | 0.724 | 0.791 | 0.715 | 0.738 | 0.897 | 1.13 | 1.03 | 0.922 | 0.903
NCI-H1299 | 0.74 | 0.728 | 0.787 | 0.654 | 0.617 |  |  |  |  |  | 1.12 | 1.02 | 1.04 | 1.1 | 1.07
NCI-H1650 | 0.524 | 0.524 | 0.645 | 0.621 | 0.508 | 0.197 | 0.191 | 0.201 | 0.169 | 0.185 |  | 1.25 | 1.23 | 1.15 | 0.865
HARA | 0.538 | 0.469 | 0.372 | 0.361 | 0.585 | 0.827 | 0.863 | 0.812 | 0.702 | 0.668 |  | 1.41 | 1.19 | 1.15 | 1.02
ChaGo-K-1 | 0.548 | 0.644 | 0.683 | 0.47 | 0.966 | 0.584 | 0.617 | 0.574 | 0.559 | 0.505 | 0.642 | 0.833 | 0.909 | 1 | 1.37
HCC-366 | 0.103 | 0.152 | 0.102 | 0.147 | 0.0862 |  |  |  |  |  | 0.959 | 1.18 | 1.05 | 1.11 | 0.501
SW 900 |  |  |  |  |  | 0.18 | 0.167 | 0.153 | 0.132 | 0.148 |  |  |  |  | 
SW 1573 | 0.489 | 0.458 | 0.43 | 0.461 | 0.467 | 0.211 | 0.353 | 0.247 | 0.221 | 0.278 | 0.965 | 0.902 | 0.901 | 0.976 | 0.784
NCI-H1703 | 0.234 | 0.264 | 0.251 | 0.202 | 0.234 |  |  |  |  |  | 0.989 | 1.04 | 1.2 | 0.93 | 0.962
SK-MES-1 | 0.406 | 0.363 | 0.304 | 0.328 | 0.289 | 0.664 | 0.721 | 0.639 | 0.324 | 0.229 | 1.34 | 1.34 | 1.3 | 1.14 | 1
HCC-827 | 1.02 | 0.979 | 1.09 | 0.896 | 0.732 | 0.475 | 0.444 | 0.872 | 0.426 | 0.451 | 1 | 1.12 | 1.04 | 1.04 | 1.04
EMC-BAC-2 | 0.535 | 0.523 | 0.535 | 0.471 | 0.535 | 1.12 | 1.08 | 1.16 | 1.11 | 1.08 | 0.963 | 1.28 | 1.2 | 1.46 | 0.774
NCI-H2023 | 0.23 | 0.244 | 0.252 | 0.215 | 0.228 | 0.711 | 0.555 | 0.685 | 0.603 | 0.386 | 0.891 | 0.89 | 0.953 | 1.03 | 1.16
NCI-H1993 | 0.709 | 0.886 | 0.759 | 0.864 | 0.787 | 0.781 | 0.711 | 0.724 | 0.869 | 0.805 | 0.951 | 0.925 | 1.05 | 0.781 | 0.879
NCI-H522 |  |  |  |  |  | 1.09 | 1.04 | 1.01 | 1.11 | 1.42 |  |  |  |  | 
COR-L 105 | 0.458 | 0.412 | 0.424 | 0.469 | 0.421 | 0.952 | 0.792 | 0.663 | 0.654 | 0.579 | 0.951 | 0.776 | 0.829 | 0.704 | 0.784
NCI-H596 | 0.4 | 0.439 | 0.409 | 0.389 | 0.466 | 0.992 | 1.02 | 1.04 | 0.881 | 0.935 | 0.791 | 1.32 | 0.955 | 0.951 | 0.787
NCI-H650 | 0.893 | 0.768 | 0.831 | 0.92 | 0.777 | 0.759 | 0.774 | 0.783 | 0.721 | 0.753 |  |  |  |  | 
NCI-H1623 |  |  |  |  |  | 0.427 | 0.457 | 0.471 | 0.463 | 0.438 |  |  |  |  | 
ABC-1 | 0.677 | 0.491 | 0.94 | 0.766 | 0.704 | 0.477 |  | 0.622 | 0.767 | 0.484 |  |  |  |  | 
HCC-78 | 0.242 | 0.179 |  | 0.231 | 0.231 |  |  |  |  |  | 0.826 | 1.02 | 0.754 | 0.943 | 0.708
NCI-H1563 | 0.651 | 0.622 | 0.573 | 0.634 | 0.638 | 0.499 | 0.525 | 0.538 | 0.515 | 0.523 |  |  |  |  | 
Calu-6 | 0.953 | 0.889 | 0.86 | 0.922 | 0.896 |  |  |  |  |  | 0.831 | 0.981 | 1.03 | 0.843 | 0.785
NCI-H358 | 0.374 | 0.352 | 0.373 | 0.354 | 0.32 | 0.285 | 0.37 | 0.319 | 0.007 | 0.29 |  |  |  |  | 
A549 | 0.485 | 0.496 | 0.46 | 0.494 | 0.396 |  |  |  |  |  | 1.37 | 1.44 | 1.28 | 1.28 | 1.04
LCLC-103H | 0.566 | 0.592 | 0.678 | 0.577 | 0.609 | 1.01 | 0.988 | 1.02 | 0.806 | 0.763 |  |  |  |  | 
IA-LM | 0.276 |  | 0.423 | 0.288 | 0.412 |  |  |  |  |  | 0.696 | 1.06 | 0.76 | 0.797 | 0.399
